For this assay, the target named is recombinant, human, C-terminally-His tagged NAMPT (Homo sapiens, UniProt P43490). Put plainly: Time-Resolved Fluorescence Resonance Energy Transfer (TR-FRET) binding assay of NAMPT. The settings on record: 6.8 nM NAMPT, 200 nM probe (Oregon Green 488-conjugated APO866), 2-3 hours. The protocol:
Time-Resolved Fluorescence Resonance Energy Transfer (TR-FRET) Binding Assay of NAMPT
Plates were read with Envision (Laser Lantha low volume protocol) after 2 to 3 hours.

Sequence of recombinant, human, C-terminally-His tagged NAMPT (P43490 whole entry): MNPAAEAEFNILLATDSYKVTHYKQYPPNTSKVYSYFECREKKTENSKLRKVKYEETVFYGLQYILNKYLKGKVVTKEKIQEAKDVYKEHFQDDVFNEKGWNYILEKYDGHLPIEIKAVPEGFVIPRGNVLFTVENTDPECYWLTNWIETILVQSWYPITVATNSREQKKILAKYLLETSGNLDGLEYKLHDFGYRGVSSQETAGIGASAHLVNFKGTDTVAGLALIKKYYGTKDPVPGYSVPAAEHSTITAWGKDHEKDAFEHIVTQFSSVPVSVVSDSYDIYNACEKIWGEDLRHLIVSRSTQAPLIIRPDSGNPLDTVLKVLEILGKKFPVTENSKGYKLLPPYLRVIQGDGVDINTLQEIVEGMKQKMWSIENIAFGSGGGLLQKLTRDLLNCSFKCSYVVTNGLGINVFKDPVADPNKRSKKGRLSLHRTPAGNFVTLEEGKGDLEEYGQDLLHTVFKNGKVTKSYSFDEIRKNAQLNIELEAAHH

In the case of `O=C(NCC1CCC2(CCNCC2)CO1)c1ccc(NC(=O)N2Cc3ccccc3C2)nn1` (stereo not drawn) [Example 31, N-{6-[(2-oxa-9-azaspiro[5.5]undec-3-ylmethyl)carbamoyl]pyridazin-3-yl}-1,3-dihydro-2H-isoindole-2-carboxamide], the half-inhibitory concentration (IC50) was determined as 253 nM.

On to `O=C(Nc1ccc(C(=O)N2CC3(CNC3)C2)nn1)N1Cc2ccccc2C1` [Example 44, N-[6-(2,6-diazaspiro[3.3]hept-2-ylcarbonyl)pyridazin-3-yl]-1,3-dihydro-2H-isoindole-2-carboxamide], for which the IC50 worked out at 10000 nM.

For the molecule `O=C(NC1CCC12CNC2)c1ccc(NC(=O)N2Cc3ccccc3C2)nn1` (stereo not drawn) [Example 25, N-[6-(2-azaspiro[3.3]hept-5-ylcarbamoyl)pyridazin-3-yl]-1,3-dihydro-2H-isoindole-2-carboxamide], the IC50 stood at 2880 nM.

For `O=C(NCCC1CCCCO1)c1ccc(NC(=O)N2Cc3ccccc3C2)cc1` (stereo not drawn) [Example 4, N-(4-{[2-(tetrahydro-2H-pyran-2-yl)ethyl]carbamoyl}phenyl)-1,3-dihydro-2H-isoindole-2-carboxamide], the IC50 was 4.08 nM.

For the molecule `O=C(NCc1nnc2n1CCNC2)c1ccc(NC(=O)N2Cc3ccccc3C2)nn1` [Example 42, N-{6-[(5,6,7,8-tetrahydro[1,2,4]triazolo[4,3-a]pyrazin-3-ylmethyl)carbamoyl]pyridazin-3-yl}-1,3-dihydro-2H-isoindole-2-carboxamide], the IC50 was 1970 nM.

For `O=C(Nc1ccc(C(=O)N2CCC3(CNCCC3F)C2)nn1)N1Cc2ccccc2C1` (stereo not drawn) [Example 20, N-{6-[(10-fluoro-2,7-diazaspiro[4.5]dec-2-yl)carbonyl]pyridazin-3-yl}-1,3-dihydro-2H-isoindole-2-carboxamide], the IC50 worked out at 406 nM.

Regarding `O=C(NCCN1CCCCCC1)c1ccc(NC(=O)N2Cc3ccccc3C2)cc1` [Example 1, N-(4-{[2-(azepan-1-yl)ethyl]carbamoyl}phenyl)-1,3-dihydro-2H-isoindole-2-carboxamide], the IC50 came to 55.6 nM.

Take `O=C(Nc1ccc(C(=O)N2CCC3(CC2)COC3)nn1)N1Cc2ccccc2C1` [Example 8, N-[6-(2-oxa-7-azaspiro[3.5]non-7-ylcarbonyl)pyridazin-3-yl]-1,3-dihydro-2H-isoindole-2-carboxamide]: the IC50 amounted to 92.2 nM.

As to `O=C(Nc1ccc(C(=O)N2CCC3(CNCCC3(F)F)C2)nn1)N1Cc2ccccc2C1` (stereo not drawn) [Example 16, N-{6-[(10,10-difluoro-2,7-diazaspiro[4.5]dec-2-yl)carbonyl]pyridazin-3-yl}-1,3-dihydro-2H-isoindole-2-carboxamide], the IC50 amounted to 116 nM.

`O=C(NCC1CC2(CCNCC2)C1)c1ccc(NC(=O)N2Cc3ccccc3C2)nn1` [Example 48, N-{6-[(7-azaspiro[3.5]non-2-ylmethyl)carbamoyl]pyridazin-3-yl}-1,3-dihydro-2H-isoindole-2-carboxamide]: the IC50 was 68.9 nM.

Consider `O=C(Nc1ccc(C(=O)N2CCCC3(COC3)C2)nn1)N1Cc2ccccc2C1` [Example 14, N-[6-(2-oxa-6-azaspiro[3.5]non-6-ylcarbonyl)pyridazin-3-yl]-1,3-dihydro-2H-isoindole-2-carboxamide], for which the IC50 was determined as 885 nM.

In the case of `O=C(NCc1nc2c([nH]1)CNCC2)c1ccc(NC(=O)N2Cc3ccccc3C2)nn1` [Example 37, N-{6-[(4,5,6,7-tetrahydro-3H-imidazo[4,5-c]pyridin-2-ylmethyl)carbamoyl]pyridazin-3-yl}-1,3-dihydro-2H-isoindole-2-carboxamide], the half-maximal inhibitory concentration (IC50) was 934 nM.

These data come from patent publication US20170253562A1, “Nampt Inhibitors” (AbbVie Inc., priority 2011, published 2017).
